According to patent publication US20240150360A1 (THE REGENTS OF THE UNIVERSITY OF MICHIGAN, priority 2021, published 2024):
Where two headings read alike, the source gives them in different places.

What was measured:
CBP = biological target: T1, CBP (Homo sapiens, UniProt Q92793); experiment: CBP degradation in 22Rv1 cells (5 h); type: cell-based; conditions: 22Rv1 cells, 5 h; for Dmax: 22Rv1, 5 h, read-out: CBP Degradation (22Rv1, 5 h) DCmax
T1 construct: endogenous in cells; host or cells: 22Rv1 (ATCC CRL-2505) human prostate cancer cells
T1 sequence (Q92793 whole entry): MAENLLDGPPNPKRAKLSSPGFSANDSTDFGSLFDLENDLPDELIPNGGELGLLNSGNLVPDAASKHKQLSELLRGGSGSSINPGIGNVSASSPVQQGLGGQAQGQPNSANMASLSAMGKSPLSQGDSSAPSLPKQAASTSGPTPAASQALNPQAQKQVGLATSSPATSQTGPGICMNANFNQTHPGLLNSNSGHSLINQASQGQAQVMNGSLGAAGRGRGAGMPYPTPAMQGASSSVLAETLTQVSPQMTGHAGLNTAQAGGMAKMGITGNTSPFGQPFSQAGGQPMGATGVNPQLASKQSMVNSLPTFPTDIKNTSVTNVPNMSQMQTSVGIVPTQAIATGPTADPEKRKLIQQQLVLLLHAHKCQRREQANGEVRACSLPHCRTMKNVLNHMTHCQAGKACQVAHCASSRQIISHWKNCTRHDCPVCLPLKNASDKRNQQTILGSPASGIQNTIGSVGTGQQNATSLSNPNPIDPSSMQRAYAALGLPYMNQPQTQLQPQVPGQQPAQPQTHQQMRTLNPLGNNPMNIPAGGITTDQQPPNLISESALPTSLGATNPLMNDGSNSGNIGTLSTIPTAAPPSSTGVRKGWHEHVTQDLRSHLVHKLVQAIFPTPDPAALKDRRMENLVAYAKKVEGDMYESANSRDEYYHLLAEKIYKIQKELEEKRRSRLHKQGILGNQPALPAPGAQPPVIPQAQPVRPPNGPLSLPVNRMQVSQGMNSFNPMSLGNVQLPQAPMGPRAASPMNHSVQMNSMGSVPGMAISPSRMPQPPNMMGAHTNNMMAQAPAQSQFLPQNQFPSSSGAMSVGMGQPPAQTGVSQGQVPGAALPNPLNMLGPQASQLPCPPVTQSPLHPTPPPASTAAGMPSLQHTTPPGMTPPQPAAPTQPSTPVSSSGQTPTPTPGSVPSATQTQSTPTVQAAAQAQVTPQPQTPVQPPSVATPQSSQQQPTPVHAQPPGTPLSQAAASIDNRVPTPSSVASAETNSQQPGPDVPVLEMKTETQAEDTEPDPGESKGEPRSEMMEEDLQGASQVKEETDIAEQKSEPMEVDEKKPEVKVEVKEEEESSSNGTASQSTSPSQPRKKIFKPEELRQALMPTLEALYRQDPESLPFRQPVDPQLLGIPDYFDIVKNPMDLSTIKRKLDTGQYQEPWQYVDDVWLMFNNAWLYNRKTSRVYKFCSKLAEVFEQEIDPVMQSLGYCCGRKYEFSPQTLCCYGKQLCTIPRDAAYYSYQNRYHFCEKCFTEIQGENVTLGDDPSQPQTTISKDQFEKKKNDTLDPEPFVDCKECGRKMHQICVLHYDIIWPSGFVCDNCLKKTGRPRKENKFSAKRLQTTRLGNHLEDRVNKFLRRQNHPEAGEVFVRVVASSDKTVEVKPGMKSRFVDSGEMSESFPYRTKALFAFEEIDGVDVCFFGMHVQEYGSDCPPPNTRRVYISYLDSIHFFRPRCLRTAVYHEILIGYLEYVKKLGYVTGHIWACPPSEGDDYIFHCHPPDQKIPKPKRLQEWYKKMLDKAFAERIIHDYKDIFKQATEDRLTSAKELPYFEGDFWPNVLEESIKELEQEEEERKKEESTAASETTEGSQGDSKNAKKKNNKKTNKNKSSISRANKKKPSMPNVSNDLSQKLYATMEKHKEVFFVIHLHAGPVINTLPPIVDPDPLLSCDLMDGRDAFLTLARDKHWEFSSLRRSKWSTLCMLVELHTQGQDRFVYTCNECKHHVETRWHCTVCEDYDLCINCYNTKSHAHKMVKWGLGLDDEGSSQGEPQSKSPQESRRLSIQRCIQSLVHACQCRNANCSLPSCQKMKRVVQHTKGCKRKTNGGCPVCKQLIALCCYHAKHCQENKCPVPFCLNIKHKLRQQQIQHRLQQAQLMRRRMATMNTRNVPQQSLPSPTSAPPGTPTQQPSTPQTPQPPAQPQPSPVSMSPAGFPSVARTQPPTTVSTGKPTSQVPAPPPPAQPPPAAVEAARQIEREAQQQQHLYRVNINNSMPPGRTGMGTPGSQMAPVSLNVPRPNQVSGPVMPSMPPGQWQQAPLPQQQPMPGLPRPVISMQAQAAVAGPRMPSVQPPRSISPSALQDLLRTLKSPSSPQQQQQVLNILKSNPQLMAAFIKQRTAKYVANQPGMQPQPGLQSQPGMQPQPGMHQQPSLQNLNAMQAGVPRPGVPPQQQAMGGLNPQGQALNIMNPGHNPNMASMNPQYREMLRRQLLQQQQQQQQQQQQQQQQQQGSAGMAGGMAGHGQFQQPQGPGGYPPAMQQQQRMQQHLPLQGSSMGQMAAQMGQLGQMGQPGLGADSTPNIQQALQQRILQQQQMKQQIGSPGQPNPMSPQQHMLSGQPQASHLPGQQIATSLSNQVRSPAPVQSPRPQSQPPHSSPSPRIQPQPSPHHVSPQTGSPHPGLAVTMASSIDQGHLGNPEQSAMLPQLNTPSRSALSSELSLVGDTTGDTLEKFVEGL
Description: (§1) Biological Assays. […] Cells with 3-8 passages after purchase were used in experiments.

HL60 = experiment: Cell growth inhibition in HL60; type: cell-based; conditions: read-out: Cell Growth Inhibition (IC50) HL60
P300 = biological target: T2, P300 (Homo sapiens, UniProt Q09472); experiment: P300 degradation in 22Rv1 cells (5 h); type: cell-based; conditions: 22Rv1 cells, 5 h; for Dmax: read-out: P300 Degradation (22Rv1, 5 h) DCmax
T2 construct: endogenous in cells; host or cells: 22Rv1 (ATCC CRL-2505) human prostate cancer cells
T2 sequence (Q09472 whole entry): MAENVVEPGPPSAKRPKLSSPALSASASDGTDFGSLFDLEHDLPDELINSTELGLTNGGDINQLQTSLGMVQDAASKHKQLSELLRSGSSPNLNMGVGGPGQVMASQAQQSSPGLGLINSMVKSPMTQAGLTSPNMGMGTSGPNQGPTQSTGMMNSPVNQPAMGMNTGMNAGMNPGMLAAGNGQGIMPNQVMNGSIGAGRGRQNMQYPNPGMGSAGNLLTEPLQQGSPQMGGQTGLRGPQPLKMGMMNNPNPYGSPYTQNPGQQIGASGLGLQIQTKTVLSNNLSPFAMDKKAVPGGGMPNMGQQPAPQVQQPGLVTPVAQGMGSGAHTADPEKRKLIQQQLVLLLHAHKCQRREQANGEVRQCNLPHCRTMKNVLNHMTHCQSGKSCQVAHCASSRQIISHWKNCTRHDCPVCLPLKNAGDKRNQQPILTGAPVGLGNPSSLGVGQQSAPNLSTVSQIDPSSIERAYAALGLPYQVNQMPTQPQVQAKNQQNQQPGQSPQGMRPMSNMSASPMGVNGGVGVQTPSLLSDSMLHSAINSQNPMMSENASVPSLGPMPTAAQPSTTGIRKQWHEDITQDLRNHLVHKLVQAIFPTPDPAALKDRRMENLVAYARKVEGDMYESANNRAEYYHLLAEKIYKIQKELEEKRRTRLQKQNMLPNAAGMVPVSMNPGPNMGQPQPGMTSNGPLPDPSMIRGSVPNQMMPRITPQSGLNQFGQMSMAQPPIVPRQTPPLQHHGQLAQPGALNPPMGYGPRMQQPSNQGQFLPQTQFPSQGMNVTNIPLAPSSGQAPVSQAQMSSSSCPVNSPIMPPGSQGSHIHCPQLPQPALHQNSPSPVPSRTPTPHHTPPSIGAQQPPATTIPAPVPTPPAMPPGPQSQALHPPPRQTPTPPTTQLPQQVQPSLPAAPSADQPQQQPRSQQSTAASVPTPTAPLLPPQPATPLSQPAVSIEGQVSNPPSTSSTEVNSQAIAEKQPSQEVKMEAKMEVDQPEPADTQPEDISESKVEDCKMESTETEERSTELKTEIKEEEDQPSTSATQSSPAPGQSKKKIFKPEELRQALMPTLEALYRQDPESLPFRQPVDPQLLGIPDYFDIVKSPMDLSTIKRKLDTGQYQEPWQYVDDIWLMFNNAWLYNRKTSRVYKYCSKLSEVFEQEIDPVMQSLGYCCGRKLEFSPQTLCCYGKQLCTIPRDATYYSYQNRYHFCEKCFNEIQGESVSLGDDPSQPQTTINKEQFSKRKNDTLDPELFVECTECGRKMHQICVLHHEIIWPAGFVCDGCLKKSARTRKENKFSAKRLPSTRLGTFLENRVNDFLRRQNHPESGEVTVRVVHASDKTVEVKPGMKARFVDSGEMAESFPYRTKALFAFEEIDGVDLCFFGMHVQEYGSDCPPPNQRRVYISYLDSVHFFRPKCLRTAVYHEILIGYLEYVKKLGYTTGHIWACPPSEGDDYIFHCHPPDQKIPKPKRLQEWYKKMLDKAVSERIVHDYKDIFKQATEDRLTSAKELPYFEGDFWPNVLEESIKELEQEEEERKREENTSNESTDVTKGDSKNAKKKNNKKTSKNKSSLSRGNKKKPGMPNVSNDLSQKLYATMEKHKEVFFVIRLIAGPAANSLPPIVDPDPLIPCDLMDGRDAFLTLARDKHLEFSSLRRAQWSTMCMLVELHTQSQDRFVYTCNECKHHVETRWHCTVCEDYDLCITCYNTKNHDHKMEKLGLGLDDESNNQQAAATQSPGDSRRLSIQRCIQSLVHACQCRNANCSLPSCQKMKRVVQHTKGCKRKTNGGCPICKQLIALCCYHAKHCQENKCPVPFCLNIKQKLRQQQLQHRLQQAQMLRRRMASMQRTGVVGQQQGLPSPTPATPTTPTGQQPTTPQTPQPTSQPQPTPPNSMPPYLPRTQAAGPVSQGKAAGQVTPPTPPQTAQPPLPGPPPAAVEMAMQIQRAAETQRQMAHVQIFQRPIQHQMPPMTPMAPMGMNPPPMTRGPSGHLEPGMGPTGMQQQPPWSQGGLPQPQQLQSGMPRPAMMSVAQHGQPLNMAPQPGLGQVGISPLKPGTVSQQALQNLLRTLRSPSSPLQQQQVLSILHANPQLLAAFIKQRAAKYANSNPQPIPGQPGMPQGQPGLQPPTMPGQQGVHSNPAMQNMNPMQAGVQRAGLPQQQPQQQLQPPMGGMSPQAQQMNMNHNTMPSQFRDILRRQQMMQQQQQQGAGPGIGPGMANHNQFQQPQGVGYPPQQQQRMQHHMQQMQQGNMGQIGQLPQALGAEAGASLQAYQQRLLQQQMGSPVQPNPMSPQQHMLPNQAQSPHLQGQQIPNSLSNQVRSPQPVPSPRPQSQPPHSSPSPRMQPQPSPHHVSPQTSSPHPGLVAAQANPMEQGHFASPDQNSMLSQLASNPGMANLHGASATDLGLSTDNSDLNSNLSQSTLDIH
Description: as §1

22Rv1 cells = experiment: Cell growth inhibition assay (CellTiter-Glo) in 22Rv1; type: cell-based, human; conditions: 22Rv1 cells, 96 h incubation, read-out: Cell Growth Inhibition (IC50) 22Rv1
Procedure, shortened: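 22Rv1 prostate cancer cells (passages 3-8, DMEM with 10% FBS) were seeded at 4000 cells/well with compound, 3-fold dilutions from 10 μM final. After 96 h at 37° C and 5% CO2, growth was read by CellTiter-Glo 2.0 luminescence.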

[1] = Homo sapiens, HL-60, HL60 cells

Structure (SMILES)	Dmax (CBP)	DC50 (CBP)	IC50 (HL60; [1])	DC50 (P300)	Dmax (P300)	IC50 (22Rv1 cells; Homo sapiens, 22Rv1, 96 h)	CBP Degradation (22Rv1, 5 h) DCmax (CBP)	IC50 (HL60; HL60 cells)	IC50 (22Rv1 cells)
CC(=O)c1cc2c(cc1C(F)F)N(c1nn(C3CCN(C(=O)CN4Cc5cc6c(cc5C4)C(=O)N(C4CCC(=O)NC4=O)C6=O)CC3)c3c1CN(C(C)=O)CC3)CCC2 (centres unmarked) [CP-019, 6-(2-(4-(5-acetyl-3-(6-acetyl-7-(difluoromethyl)-3,4-dihydroquinolin-1(2H)-yl)-4,5,6,7-tetrahydro-1H-pyrazolo[4,3-c]pyridin-1-yl)piperidin-1-yl)-2-oxoethyl)-2-(2,6-dioxopiperidin-3-yl)-6,7-dihydropyrrolo[3,4-f]isoindole-1,3(2H,5H)-dione]	< 50%	> 1000 nM	< 1000 nM	> 1000 nM	< 50%	> 10000 nM	–	–	–
CC(=O)c1cc2c(cc1C(F)F)N(c1nn(C3CCN(C(=O)CN4CCc5cc6c(cc5C4)C(=O)N(C4CCC(=O)NC4=O)C6=O)CC3)c3c1CN(C(C)=O)CC3)CCC2 (centres unmarked) [CP-020, 6-(2-(4-(5-acetyl-3-(6-acetyl-7-(difluoromethyl)-3,4-dihydroquinolin-1(2H)-yl)-4,5,6,7-tetrahydro-1H-pyrazolo[4,3-c]pyridin-1-yl)piperidin-1-yl)-2-oxoethyl)-2-(2,6-dioxopiperidin-3-yl)-5,6,7,8-tetrahydro-1H-pyrrolo[3,4-g]isoquinoline-1,3(2H)-dione]	< 50%	> 1000 nM	< 1000 nM	> 1000 nM	< 50%	> 10000 nM	–	–	–
Cc1noc(C)c1-c1ccc2c(c1)nc([C@@H]1CCCC(=O)N1c1ccc(F)c(F)c1)n2C1CCN(C(=O)CN2Cc3cc4c(cc3C2)C(=O)N(C2CCC(=O)NC2=O)C4)CC1 (stereo partly drawn) [CP-062, 3-(6-(2-(4-(2-((S)-1-(3,4-difluorophenyl)-6-oxopiperidin-2-yl)-5-(3,5-dimethylisoxazol-4-yl)-1H-benzo[d]imidazol-1-yl)piperidin-1-yl)-2-oxoethyl)-1-oxo-3,5,6,7-tetrahydropyrrolo[3,4-f]isoindol-2(1H)-yl)piperidine-2,6-dione]	< 50%	< 1000 nM	> 10000 nM	< 100 nM	> 50%	> 10000 nM	–	–	–
Cn1cc(-c2cc3c(cc2C(F)F)N(c2nn(C4CCN(C(=O)CN5Cc6cc7c(cc6C5)C(=O)N(C5CCC(=O)NC5=O)C7=O)CC4)c4c2CN(CC(F)(F)F)CC4)CCC3)cn1 (centres unmarked)	< 50%	< 1000 nM	< 10000 nM	> 1000 nM	< 50%	> 10000 nM	–	–	–
CC(=O)N1CCc2c(c(N3CCCc4cc(Br)c(C(F)F)cc43)nn2C2CCN(C(=O)CN3Cc4cc5c(cc4C3)C(=O)N(C3CCC(=O)NC3=O)C5=O)CC2)C1 (centres unmarked) [CP-016, 6-(2-(4-(5-acetyl-3-(6-bromo-7-(difluoromethyl)-3,4-dihydroquinolin-1(2H)-yl)-4,5,6,7-tetrahydro-1H-pyrazolo[4,3-c]pyridin-1-yl)piperidin-1-yl)-2-oxoethyl)-2-(2,6-dioxopiperidin-3-yl)-6,7-dihydropyrrolo[3,4-f]isoindole-1,3(2H,5H)-dione]	< 50%	> 1000 nM	< 100 nM	> 1000 nM	< 50%	< 1000 nM	–	–	–
Cc1noc(C)c1-c1ccc2c(c1)nc([C@@H]1CCCC(=O)N1c1ccc(F)c(F)c1)n2C1CCN(C(=O)CN2CCc3cc4c(cc3CC2)C(=O)N(C2CCC(=O)NC2=O)C4=O)CC1 (stereo partly drawn) [CP-064, 7-(2-(4-(2-((S)-1-(3,4-difluorophenyl)-6-oxopiperidin-2-yl)-5-(3,5-dimethylisoxazol-4-yl)-1H-benzo[d]imidazol-1-yl)piperidin-1-yl)-2-oxoethyl)-2-(2,6-dioxopiperidin-3-yl)-6,7,8,9-tetrahydroazepino[4,5-f]isoindole-1,3(2H,5H)-dione]	< 50%	> 1000 nM	> 10000 nM	> 1000 nM	< 50%	> 10000 nM	–	–	–
Cn1cc(-c2cc3c(cc2C(F)F)N(c2nn(C4CCN(C(=O)CN5Cc6cc7c(cc6C5)C(=O)N(C5CCC(=O)NC5=O)C7=O)CC4)c4c2CN(CC(C)(F)F)CC4)CCC3)cn1 (centres unmarked) [CP-059, 6-(2-(4-(3-(7-(difluoromethyl)-6-(1-methyl-1H-pyrazol-4-yl)-3,4-dihydroquinolin-1(2H)-yl)-5-(2,2-difluoropropyl)-4,5,6,7-tetrahydro-1H-pyrazolo[4,3-c]pyridin-1-yl)piperidin-1-yl)-2-oxoethyl)-2-(2,6-dioxopiperidin-3-yl)-6,7-dihydropyrrolo[3,4-f]isoindole-1,3(2H,5H)-dione]	< 50%	> 1000 nM	< 10000 nM	> 1000 nM	< 50%	> 10000 nM	–	–	–
CC(=O)N1CCc2c(c(N3CCCc4cc(-c5cnn(C)c5)c(C(F)F)cc43)nn2C2CCN(C(=O)CN3CCc4cc5c(cc4C3)C(=O)N(C3CCC(=O)NC3=O)C5=O)CC2)C1 (centres unmarked) [CP-001, 6-(2-(4-(5-acetyl-3-(7-(difluoromethyl)-6-(1-methyl-1H-pyrazol-4-yl)-3,4-dihydroquinolin-1(2H)-yl)-4,5,6,7-tetrahydro-1H-pyrazolo[4,3-c]pyridin-1-yl)piperidin-1-yl)-2-oxoethyl)-2-(2,6-dioxopiperidin-3-yl)-5,6,7,8-tetrahydro-1H-pyrrolo[3,4-g]isoquinoline-1,3(2H)-dione]	> 90%	< 10 nM	< 100 nM	–	–	< 100 nM	–	–	–

Further lines, results first:

Dmax (CBP)	DC50 (CBP)	IC50 (HL60; [1])	DC50 (P300)	Dmax (P300)	IC50 (22Rv1 cells; Homo sapiens, 22Rv1, 96 h)	CBP Degradation (22Rv1, 5 h) DCmax (CBP)	IC50 (HL60; HL60 cells)	IC50 (22Rv1 cells)	Structure (SMILES)
> 90%	< 10 nM	< 1000 nM	< 10 nM	> 90%	< 1000 nM	–	–	–	CC(=O)N1CCc2c(c(-c3cccc4ccccc34)nn2C2CCN(C(=O)CN3Cc4cc5c(cc4C3)C(=O)N(C3CCC(=O)NC3=O)C5=O)CC2)C1 (centres unmarked) [CP-075, 6-(2-(4-(5-acetyl-3-(naphthalen-1-yl)-4,5,6,7-tetrahydro-1H-pyrazolo[4,3-c]pyridin-1-yl)piperidin-1-yl)-2-oxoethyl)-2-(2,6-dioxopiperidin-3-yl)-6,7-dihydropyrrolo[3,4-f]isoindole-1,3(2H,5H)-dione]
> 90%	< 10 nM	< 100 nM	< 10 nM	> 90%	< 1000 nM	–	–	–	CC(=O)N1CCc2c(c(N3CCCc4cc(-c5cnn(C)c5)c(C(F)F)cc43)nn2C[C@H]2CC[C@H](N3CCc4cc5c(cc4C3)C(=O)N(C3CCC(=O)NC3=O)C5=O)CC2)C1 (some centres unmarked) [CP-041, 6-(4-((5-acetyl-3-(7-(difluoromethyl)-6-(1-methyl-1H-pyrazol-4-yl)-3,4-dihydroquinolin-1(2H)-yl)-4,5,6,7-tetrahydro-1H-pyrazolo[4,3-c]pyridin-1-yl)methyl)cyclohexyl)-2-(2,6-dioxopiperidin-3-yl)-5,6,7,8-tetrahydro-1H-pyrrolo[3,4-g]isoquinoline-1,3(2H)-dione]
> 90%	< 10 nM	< 100 nM	–	–	< 1000 nM	–	–	–	CC(=O)N1CCc2c(c(N3CCCc4cc(-c5cnn(C6CCN(C(=O)CN7CCc8cc9c(cc8C7)C(=O)N(C7CCC(=O)NC7=O)C9=O)CC6)c5)c(C(F)F)cc43)nn2C2CCOCC2)C1 (centres unmarked) [CP-071, 6-(2-(4-(4-(1-(5-acetyl-1-(tetrahydro-2H-pyran-4-yl)-4,5,6,7-tetrahydro-1H-pyrazolo[4,3-c]pyridin-3-yl)-7-(difluoromethyl)-1,2,3,4-tetrahydroquinolin-6-yl)-1H-pyrazol-1-yl)piperidin-1-yl)-2-oxoethyl)-2-(2,6-dioxopiperidin-3-yl)-5,6,7,8-tetrahydro-1H-pyrrolo[3,4-g]isoquinoline-1,3(2H)-dione]
> 70%	< 10 nM	< 100 nM	–	–	< 1000 nM	–	–	–	CC(=O)N1CCc2c(c(N3CCCc4cc(-c5cnn(CCCCCN6CCc7cc8c(cc7C6)C(=O)N(C6CCC(=O)NC6=O)C8=O)c5)c(C(F)F)cc43)nn2C2CCOCC2)C1 (centres unmarked) [CP-069, 6-(5-(4-(1-(5-acetyl-1-(tetrahydro-2H-pyran-4-yl)-4,5,6,7-tetrahydro-1H-pyrazolo[4,3-c]pyridin-3-yl)-7-(difluoromethyl)-1,2,3,4-tetrahydroquinolin-6-yl)-1H-pyrazol-1-yl)pentyl)-2-(2,6-dioxopiperidin-3-yl)-5,6,7,8-tetrahydro-1H-pyrrolo[3,4-g]isoquinoline-1,3(2H)-dione]
–	< 10 nM	–	–	–	–	+++ (>90% = +++)	< 100 nM	< 1000 nM	CC(=O)N1CCc2c(c(N3CCCc4cc(-c5cnn(C)c5)c(C(F)F)cc43)nn2C2CCC(C(=O)N3CCc4cc5c(cc4C3)C(=O)N(C3CCC(=O)NC3=O)C5=O)CC2)C1 (centres unmarked) [CP-036, 6-(4-(5-acetyl-3-(7-(difluoromethyl)-6-(1-methyl-1H-pyrazol-4-yl)-3,4-dihydroquinolin-1(2H)-yl)-4,5,6,7-tetrahydro-1H-pyrazolo[4,3-c]pyridin-1-yl)cyclohexane-1-carbonyl)-2-(2,6-dioxopiperidin-3-yl)-5,6,7,8-tetrahydro-1H-pyrrolo[3,4-g]isoquinoline-1,3(2H)-dione]
> 70%	< 10 nM	< 1000 nM	–	–	< 1000 nM	–	–	–	CCC(=O)N1CCc2c(c(N3CCCc4cc(-c5cnn(C)c5)c(C(F)F)cc43)nn2C2CCN(C(=O)CN3Cc4cc5c(cc4C3)C(=O)N(C3CCC(=O)NC3=O)C5=O)CC2)C1 (centres unmarked) [CP-055, 6-(2-(4-(3-(7-(difluoromethyl)-6-(1-methyl-1H-pyrazol-4-yl)-3,4-dihydroquinolin-1(2H)-yl)-5-propionyl-4,5,6,7-tetrahydro-1H-pyrazolo[4,3-c]pyridin-1-yl)piperidin-1-yl)-2-oxoethyl)-2-(2,6-dioxopiperidin-3-yl)-6,7-dihydropyrrolo[3,4-f]isoindole-1,3(2H,5H)-dione]
